Laboratory results from patent US20040116385A1, “Treating and preventing viral infections with porphyrin-based compounds” (priority 2002, published 2004).

Assays:
[1] = system: V79 hamster fibroblast cells
From the text: We have also determined the cytotoxicity of porphyrins 4, 16, 18, and 31 in V79 hamster fibroblast cells using a clonogenic assay.

[2] = system: Rat gliosarcoma 9L cells; assay: Dark cytotoxicity assay, 9L cells; type: cell-based; settings: 24 hour exposure, read-out: IC50 (dark toxicity)
Protocol: (§1) Human glioblastoma U373 MG, hamster V79 fibroblast, and mouse melanoma B16 cells were obtained from the American Type Culture Collection. Rat gliosarcoma cells were kindly provided by the University of California at San Francisco Brain Tumor Research Group. All cells were maintained in log phase monolayer cultures with RPMI 1640 supplemented with 10% fetal bovine serum and 2 mM glutamine.
(§2) Cells were seeded in 96-well culture plates, and were allowed to settle and attach for 24-48 hours. Triplicate wells were then exposed to twofold serial dilutions of test compounds at concentrations up to 250 μM. Compounds 4, 6, 10, and 12 in crystalline form were carefully weighed and dissolved in 100% DMSO to prepare stock solutions. Subsequent dilutions were performed directly in the culture medium just before the medium was administered to cells. After short-term (2 hour) or long-term (24 hour) exposure, cells were washed, and the wells were refilled with fresh culture medium. For dark toxicity trials, cells were allowed to proliferate for an additional 48-72 hours. For phototoxicity trials, washed cells were irradiated for 10 minutes with broad spectrum (600-700 nm) red light, and were then returned to an incubator for 48-72 hours.

[3] = system: Human glioblastoma U373 MG cells; assay: Dark cytotoxicity assay, U-373 MG cells; type: cell-based; settings: 24 hour exposure, read-out: IC50 (dark toxicity)
Protocol: as §1, §2

[4] = system: 9L, U-373 MG and B16 cells; assay: Phototoxicity assay (red light irradiation); type: cell-based; settings: irradiation with broad spectrum (600-700 nm) red light 10 minutes
Protocol: as §1, §2

[5] = system: 9L, U-373MG and B16 cells; assay: Concentration-dependent cellular uptake; type: cell-based; settings: cells exposed to 1, 5, and 10 μM for 24 hours
Protocol: The concentration-dependent uptake of compounds 4, 6, 10, and 12 was investigated in cells exposed to 1, 5, and 10 μM concentrations of the porphyrins for 24 hours. The concentration of intracellular-bound porphyrin was determined by chemical extraction of washed cell monolayers, followed by spectrophotometric or ICP-MS determinations, or both. The uptake values for 9L and U-373MG cells were very similar, and exceeded that for B16 cells. The porphyrin accumulation was invariably observed to increase with increasing concentration of the compound.

[6] = mouse, in vivo
[7] = system: HIV-1 strain IIIB; assay: In vitro virucidal activity against HIV-1 strain IIIB (assay of A. Vzorov et al. 2002); type: cell-based; settings: 0% = no infective particles remained
Protocol: (§3) Porphyrins 16, 31, and 33 have been assayed for in vitro virucidal activity against HIV-1 using the assay of A. Vzorov et al. (2002) (full citation below). The assay was conducted on two different strains of HIV-1, strain IIIB, and strain 89.6. The figures in the table denote the percentage of viral particles that were still infective following treatment.

[8] = system: HIV-1 strain 89.6; assay: In vitro virucidal activity against HIV-1 strain 89.6 (assay of A. Vzorov et al. 2002); type: cell-based; settings: 0% = no infective particles remained
Protocol: as §3

[9] = system: supercoiled DNA substrate φX174; assay: Supercoiled DNA nicking assay (DNA photodamage); type: biochemical; settings: for Form II (nicked) DNA produced in the dark: samples kept in the dark; for phosphodiester breaks in supercoiled DNA, light-exposed versus dark: yellow light 100 W bulb, 30 cm, 30 minutes
From the text: In the first test to determine the ability of a porphyrin to induce DNA photodamage, we used a supercoiled DNA substrate that migrates rapidly as a single band in agarose gels, but migrates much more slowly if the DNA sustains as little as a single phosphodiester break or nick. Using this technique, we examined the ability of porphyrins 16, 31 and 33 to nick the supercoiled DNA substrate φX174. The porphyrin—DNA mixtures were shielded from light until just prior to the nicking assay, at which time half of each sample remained in the dark, while the other half was exposed to yellow light from a 100 W bulb at a distance of 30 cm for 30 minutes, at room temperature. The samples were then incubated for 30 min at room temperature in the dark, and the products of the reaction were then electrophoresed on a 1% agarose gel and stained.

[10] = system: human leukemia K562 cells; assay: Alkaline Comet assay; type: cell-based; settings: yellow light 100 W bulb 5 minutes, versus dark and light-only controls
Protocol: The second test, the alkaline Comet assay, is a sensitive technique for determining the presence of single- and double-strand breaks and other DNA lesions such as baseless sites. Human K562 cells were incubated with porphyrins 16, 31, and 33, and were then either exposed to a source of yellow light from a 100 W bulb for 5 minutes at room temperature or kept in the dark. The cells were then immobilized on agarose slides, lysed, exposed to alkaline buffer, electrophoresed, and stained for visualization.

[11] = system: HIV-1; settings: preliminary experiments

| Substance | CS50 [1] | IC50 [2] | IC50 [3] | IC50 ([4]; 2-hour exposure) | IC50 ([4]; 24-hour exposure) | uptake relative to the corresponding Zn(II) complexes [5] | maximum tolerated dose [6] | percentage of viral particles that were still infective following treatment [7] | percentage of viral particles that were still infective following treatment [8] | Form II (nicked) DNA produced in the dark [9] | phosphodiester breaks in supercoiled DNA, light-exposed versus dark [9] | DNA damage (Comet tail) after light exposure [10] | activity against HIV-1 in vitro [11] |
| --- | --- | --- | --- | --- | --- | --- | --- | --- | --- | --- | --- | --- | --- |
| Zn(II)-meso-tetra[4-(nido-carboranyl)phenyl]porphyrin tetrapotassium salt [Compound 18] | > 300 µM |  |  |  |  |  |  |  |  |  |  |  |  |
| meso-tetra[4-(1-methyl-nido-arboranyl)methylphenyl]porphyrin tetrapotassium salt [Compound 4] | > 300 µM | ~150 µM | ~150 µM | ~50 µM | ~1.5 µM | approximately four times greater | exceeded 300 mg per kg of body weight |  |  |  |  |  |  |
| Zn(II)-5,15-bis[bis-3,5-(1-methyl-nido-carboranyl)methylphenyl]porphyrin tetrapotassium salt [Compound 33] |  |  |  |  |  |  | exceeded 300 mg per kg of body weight | 0% | 4% | little Form II DNA | significantly more effective | light-activated DNA damage | high levels of activity |
| 5,15-bis[bis-3,5-(1-methyl-nido-carboranyl)methylphenyl]porphyrin tetrapotassium salt [Compound 31] | > 300 µM |  |  |  |  |  | exceeded 300 mg per kg of body weight | 9% | 2% | little Form II DNA | significantly more effective | light-activated DNA damage | high levels of activity |
| meso-tetra[4-(nido-carboranyl)phenyl]porphyrin tetrapotassium salt [Compound 16] | > 300 µM |  |  |  |  |  | exceeded 300 mg per kg of body weight | 4% | 0% | little Form II DNA | significantly more effective | light-activated DNA damage | high levels of activity |
| Zn(II)-meso-tetra[4-(1-methyl-nido-carboranyl)methylphenyl]porphyrin tetrapotassium salt [Compound 6] |  |  |  |  |  |  | exceeded 300 mg per kg of body weight |  |  |  |  |  |  |
| meso-tetra[3-(1-methyl-nido-carboranyl)methylphenyl]porphyrin tetrapotassium salt [Compound 10] |  | ~150 µM | ~150 µM |  |  | approximately four times greater |  |  |  |  |  |  |  |
